# Like-named read-outs stand apart in the source and are kept apart here. Where no end group is shown, it is not given here.
# What was measured:
# Mycobacterium species = assay type: cell-based
# M. fortuitum = experiment: MIC against M. fortuitum; assay type: cell-based, Mycobacterium fortuitum; details: M. fortuitum (ATCC 6841); CAAT media
# M. kansasii = experiment: MIC against M. kansasii; assay type: cell-based, Mycobacterium kansasii; details: M. kansasi (ATCC 12478); CAAT media
# M. intracellulare = experiment: MIC against M. intracellulare; assay type: cell-based, Mycobacterium intracellulare; details: M. intracellulare (ATCC 13950); CAAT media
# Achromobacter spp. = experiment: MIC by broth microdilution against Achromobacter spp.; assay type: cell-based; details: Tables 8-12
# Protocol: (§1) MIC values were determined using a modification of the standard broth microdilution reference method defined by the Clinical and Laboratory Standards Institute (CLSI), CLSL. 2015. Methods for Dilution Antimicrobial Susceptibility Tests for Bacteria That Grow Aerobically; Approved Standard-10th Edition. Clinical and Laboratory Standards Institute, Wayne, PA. The modification was based on the replacement of Mueller Hinton Broth with either CAA media (with and without NaCl) or CAA supplemented with 2.5% human serum. MIC is the minimum concentration of peptide sufficient to suppress at least 80% of the bacterial growth compared to control.
# (§2) The MICs for were determined as described below using the broth microdilution method for meropenem, GN370, AM1, AM2, and AM3. The results are shown below in Tables 8-12.
# B. gladioli [1] = experiment: MIC by broth microdilution against B. gladioli; assay type: cell-based, Burkholderia gladioli; details: B. gladioli isolates
# Protocol: as §1
# (§3) Based on these nine most prevalent strains, direct lytic agents, including GN370, AM1, AM2, and AM3, were evaluated against various isolates from each of the 9 strains. MICs and MBECs (Example 3) were determined, and a sputum inhibition test was conducted, as described below in Example 5.
# as §2
# B. multivorans [2] = experiment: MIC by broth microdilution against B. multivorans; assay type: cell-based, Burkholderia multivorans; details: B. multivorans isolates
# Protocol: as §1, §3, §2
# P. apista [3] = experiment: MIC by broth microdilution against P. apista; assay type: cell-based, Pandoraea apista; details: P. apista isolates
# Protocol: as §1, §3, §2
# A. xylosoxidans = test system: A. xylosoxidans
# Protocol: (§4) Biofilms are then washed and treated with e.g., a 2-fold dilution series of the lysin in TSBg at e.g., 37° C. for 24 hours. After treatment, wells are washed, air-dried at e.g., 37° C. and stained with e.g., 0.05% crystal violet for 10 minutes.
# (§5) The antibiofilm activity of GN370, AM1, AM2, and AM3 was evaluated against various Gram-negative bacteria prevalent in cystic fibrosis patients, including P. aeruginosa, S. maltophilia, and A. xylosoxidans.
# (§6) The MBEC (after 2-hour treatments) was determined as described in Jones and Wozniak, PsI Produced by Mucoid Pseudomonas aeruginosa Contributes to the Establishment of Biofilms and Immune Evasion, Am. […] Microbiol.
# B. multivorans [4] = test system: B. multivorans
# Protocol: as §4, §5, §6
# S. maltophilia [5] = test system: S. maltophilia
# Protocol: as §4, §5, §6
# S. maltophilia [6] = experiment: Time-kill assay in cystic fibrosis patient sputum, S. maltophilia; assay type: cell-based, Stenotrophomonas maltophilia
# Excerpt: Sputum from 5 cystic fibrosis patients was pooled. The resulting mixture was not filtered, as it was very dense and not amenable to sterilization by filtration. Sputum is known to be a complex mixture of DNA, carbohydrates, and lipids ([…], 2016). As used herein, the term “sputum” refers to the mucus present in the respiratory tract of an animal, such as a human. Sputum may increase in thickness due to the irritation or infection, including bacterial infection, and in some instances, may be expelled by the animal while coughing. In certain instances, cystic fibrosis may be characterized by the presence of a thick, sticky mucus or sputum present in the lungs of cystic fibrosis patients. The activity of GN370, AM1, AM2, AM3, and meropenem was determined in the sputum using a time-kill assay format as disclosed in Zhang et al., Antimicrobial peptide therapeutics for cystic fibrosis, Antimicrobial Agents Chemother. 2005; 49(7):2921-2927. […] Untreated controls were included in addition to pretreatment plating (t=0) for a baseline CFU determination. Activity was also determined in the absence of sputum for comparison to activity observed in the presence of sputum.
# S. maltophilia [7] = experiment: Serial passage resistance development study, S. maltophilia; assay type: cell-based, Stenotrophomonas maltophilia; details: S. maltophilia, day 28, triplicate
# A. ruhlandii = assay type: cell-based, Achromobacter ruhlandii
# Protocol: (§7) The MBEC (after 2-hour treatments) was determined as described in Jones and Wozniak, PsI Produced by Mucoid Pseudomonas aeruginosa Contributes to the Establishment of Biofilms and Immune Evasion, Am. Soc. Microbiol. 2017, 8(3):e00864-17. Meropenem and tobramycin were included as controls and were both poorly active, with MBEC90 values of >256 μg/mL (data not shown).
# B. gladioli [8] = assay type: cell-based, Burkholderia gladioli; details: B. gladioli (15); 2-hour treatment
# Protocol: as §7
# P. apista [9] = assay type: cell-based, Pandoraea apista
# Protocol: as §7
# [10] = α-hemolytic P. aeruginosa isolates (n = 13)
sequence,measurement,setting,value
MRLKMARRRYRLPRRRSRRLFSRTALRMHPRNRLRRIMRGGIRF [AM1],activity (MIC) against Mycobacterium species,Mycobacterium species,highest activity
same,MIC,M. fortuitum,2 µg/mL
same,MIC,M. kansasii,2 µg/mL
same,MIC,M. intracellulare,0.5 µg/mL
same,activity (MIC) against Achromobacter spp.,Achromobacter spp.,highly active
same,MIC50,B. gladioli [1],8 µg/mL
same,MIC90,B. gladioli [1],64 µg/mL
same,MIC Range,B. gladioli [1]; in µg/mL,0.03-128
same,MIC50,B. multivorans [2],128 µg/mL
same,MIC90,B. multivorans [2],> 128 µg/mL
same,MIC50,P. apista [3],64 µg/mL
same,MIC90,P. apista [3],> 128 µg/mL
same,MBEC50,A. xylosoxidans,0.5 µg/mL
same,MBEC90,A. xylosoxidans,1 µg/mL
same,MBEC Range,A. xylosoxidans,0.125 to 2 µg/mL
same,antibiofilm activity (MBEC) against A. xylosoxidans,A. xylosoxidans; 2-hour treatments,highly active
same,MBEC50,B. multivorans [4],2 µg/mL
same,MBEC90,B. multivorans [4],4 µg/mL
same,MBEC Range,B. multivorans [4],2 to 4 µg/mL
same,antibiofilm activity (MBEC) against B. multivorans,B. multivorans [4]; 2-hour treatments,highly active
same,MBEC50,S. maltophilia [5],1 µg/mL
same,MBEC90,S. maltophilia [5],2 µg/mL
same,MBEC Range,S. maltophilia [5],0.25 to 2 µg/mL
same,antibiofilm activity (MBEC) against S. maltophilia,S. maltophilia [5]; 2-hour treatments,highly active
same,effect of sputum on antibacterial activity,S. maltophilia [6]; 10% CF sputum vs no sputum,"none of GN370, AM1, AM2, and AM3 was inhibited"
same,Log10 CFU/mL of sputum,"S. maltophilia [6]; absence of sputum, 1 hr",2.3 Log10 CFU/mL of sputum
same,Log10 CFU/mL of sputum,"S. maltophilia [6]; absence of sputum, 3 hr",2.3 Log10 CFU/mL of sputum
same,Log10 CFU/mL of sputum,"S. maltophilia [6]; absence of sputum, 24 hr",2.3 Log10 CFU/mL of sputum
same,Log10 CFU/mL of sputum,"S. maltophilia [6]; presence of 10% sputum, 1 hr",2.3 Log10 CFU/mL of sputum
same,Log10 CFU/mL of sputum,"S. maltophilia [6]; presence of 10% sputum, 3 hr",2.3 Log10 CFU/mL of sputum
same,Log10 CFU/mL of sputum,"S. maltophilia [6]; presence of 10% sputum, 24 hr",2.3 Log10 CFU/mL of sputum
same,"killing by 1 hour, maintained at 24 hours",S. maltophilia [6]; time-kill,complete killing
same,change in MIC over serial passage,S. maltophilia [7],no increase in MIC
same,MBEC50,A. ruhlandii,16 µg/mL
same,MBEC90,A. ruhlandii,16 µg/mL
same,MBEC Range,A. ruhlandii,2 to 16 µg/mL
same,MBEC50,B. gladioli [8],4 µg/mL
same,MBEC90,B. gladioli [8],16 µg/mL
same,MBEC Range,B. gladioli [8],0.5 to 32 µg/mL
same,MBEC50,P. apista [9],8 µg/mL
same,MBEC90,P. apista [9],16 µg/mL
same,AM1 MIC50,P. aeruginosa,0.25 µg/mL
same,AM1 MIC90,P. aeruginosa,0.5 µg/mL
same,MIC50,P. aeruginosa,0.25 µg/mL
same,MIC90,P. aeruginosa,0.5 µg/mL
same,MIC Range,"P. aeruginosa; MDR P. aeruginosa isolates (n = 13), in µg/mL",0.016-0.5
same,MIC50,P. aeruginosa; P. aeruginosa isolates,0.25 µg/mL
same,MIC90,P. aeruginosa; P. aeruginosa isolates,0.5 µg/mL
same,MIC,P. aeruginosa; P. aeruginosa test organism of the sputum time-kill assay,(MIC = 1)
same,activity (MIC) against P. aeruginosa isolates,"P. aeruginosa; all tested isolates, Tables 8-12",highly active
same,AM1 MIC Range,P. aeruginosa; carbapenem-resistant P. aeruginosa isolates (n = 17),0.016-0.5
same,MIC50,P. aeruginosa; [10],0.25 µg/mL
same,MIC90,P. aeruginosa; [10],0.5 µg/mL

# From patent publication US20240181022A1, “AMURINS LYSINS, AND LYSIN-ANTIMICROBIAL PEPTIDE (AMP) CONSTRUCTS ACTIVE AGAINST GRAM-NEGATIVE BACTERIA” (priority 2021, published 2024)
